In ChEMBL document CHEMBL3044568, “Synthesis, analgesic, anti-inflammatory, and in vitro antimicrobial activities of some novel quinazolin-4(3H)-one derivatives” (Med Chem Res, 2013):
≈ marks a conversion by molar mass, not a printed value.

How the values were obtained:
Rattus norvegicus [1] = test: Anti-inflammatory activity in Rattus norvegicus Wistar (rat) assessed as protection against carrageenan-induced paw edema at 10 mg/kg, po measured at 2 hr by plethysmographic analysis (reference value: 5 +/- 0.41%); type: functional
Mus musculus [2] = test: Analgesic activity in Mus musculus […] albino (mouse) at 20 mg/kg, po measured at 1 hr by tail flick test (reference value: 5 +/- 0.49%)
Mus musculus [3] = test: Analgesic activity in Mus musculus […] albino (mouse) at 20 mg/kg, po measured at 3 hr by tail flick test (reference value: 3 +/- 0.41%)
Rattus norvegicus [4] = test: Anti-inflammatory activity in Rattus norvegicus Wistar (rat) assessed as protection against carrageenan-induced paw edema at 10 mg/kg, po measured at 30 min by plethysmographic analysis (reference value: 4 +/- 0.28%); type: functional
Escherichia coli = test: Antibacterial activity against Escherichia coli ATCC 25922 assessed as growth inhibition after 24 hr by agar streak dilution method; type: functional; details: ATCC 25922, 24 h
Rattus norvegicus [5] = test: Anti-inflammatory activity in Rattus norvegicus Wistar (rat) assessed as protection against carrageenan-induced paw edema at 20 mg/kg, po measured at 1 hr by plethysmographic analysis (reference value: 6 +/- 0.63%); type: functional
Klebsiella pneumoniae = test: Antibacterial activity against Klebsiella pneumoniae ATCC 11298 assessed as growth inhibition after 24 hr by agar streak dilution method; type: functional; details: ATCC 11298, 24 h
Rattus norvegicus [6] = test: Anti-inflammatory activity in Rattus norvegicus Wistar (rat) assessed as protection against carrageenan-induced paw edema at 10 mg/kg, po measured at 3 hr by plethysmographic analysis (reference value: 4 +/- 0.75%); type: functional
Staphylococcus aureus = test: Antibacterial activity against Staphylococcus aureus ATCC 9144 assessed as growth inhibition after 24 hr by agar streak dilution method; type: functional; details: ATCC 9144, 24 h
Mus musculus [7] = test: Analgesic activity in Mus musculus […] albino (mouse) at 20 mg/kg, po measured at 30 min by tail flick test (reference value: 4 +/- 0.72%)
Rattus norvegicus [8] = test: Anti-inflammatory activity in Rattus norvegicus Wistar (rat) assessed as protection against carrageenan-induced paw edema at 20 mg/kg, po measured at 30 min by plethysmographic analysis (reference value: 4 +/- 0.28%); type: functional
Micrococcus luteus = test: Antibacterial activity against Micrococcus luteus ATCC 4698 assessed as growth inhibition after 24 hr by agar streak dilution method; type: functional; details: ATCC 4698, 24 h
Mus musculus [9] = test: Analgesic activity in Mus musculus […] albino (mouse) at 10 mg/kg, po measured at 2 hr by tail flick test (reference value: 6 +/- 0.84%)
Mus musculus [10] = test: Analgesic activity in Mus musculus […] albino (mouse) at 10 mg/kg, po measured at 30 min by tail flick test (reference value: 4 +/- 0.72%)
Aspergillus niger = test: Antifungal activity against Aspergillus niger ATCC 9029 assessed as growth inhibition after 48 hr by agar streak dilution method; type: functional; details: ATCC 9029, 48 h
Rattus norvegicus [11] = test: Anti-inflammatory activity in Rattus norvegicus Wistar (rat) assessed as protection against carrageenan-induced paw edema at 10 mg/kg, po measured at 1 hr by plethysmographic analysis (reference value: 6 +/- 0.63%); type: functional
Pseudomonas aeruginosa = test: Antibacterial activity against Pseudomonas aeruginosa […] assessed as growth inhibition after 24 hr by agar streak dilution method; type: functional
Rattus norvegicus [12] = test: Anti-inflammatory activity in Rattus norvegicus Wistar (rat) assessed as protection against carrageenan-induced paw edema at 20 mg/kg, po measured at 2 hr by plethysmographic analysis (reference value: 5 +/- 0.41%); type: functional
Rattus norvegicus [13] = test: Ulcerogenecity in Rattus norvegicus Wistar albino (rat) stomach assessed as ulcer index administered 20 mg/kg, ip qd for 3 days measured on day 4 (reference value: 0.13 +/- 0.05 no unit); type: ADME, organism-based; design: dose 20 mg/kg, route intraperitoneal; details: in vivo, 72 h
Rattus norvegicus [14] = test: Ulcerogenecity in Rattus norvegicus Wistar albino (rat) stomach assessed as ulcer index administered 20 mg/kg, ip qd for 3 days measured on day 4 relative to aspirin; type: ADME, organism-based; design: dose 20 mg/kg, route intraperitoneal; details: in vivo, 72 h
Mus musculus [15] = test: Analgesic activity in Mus musculus […] albino (mouse) at 20 mg/kg, po measured at 2 hr by tail flick test (reference value: 6 +/- 0.84%)
Bacillus cereus = test: Antibacterial activity against Bacillus cereus ATCC 11778 assessed as growth inhibition after 24 hr by agar streak dilution method; type: functional; details: ATCC 11778, 24 h
Mus musculus [16] = test: Analgesic activity in Mus musculus […] albino (mouse) at 10 mg/kg, po measured at 3 hr by tail flick test (reference value: 3 +/- 0.41%)
Mus musculus [17] = test: Analgesic activity in Mus musculus […] albino (mouse) at 10 mg/kg, po measured at 1 hr by tail flick test (reference value: 5 +/- 0.49%)
[18] = tested on: Staphylococcus epidermidis; test: Antibacterial activity against Staphylococcus epidermidis ATCC 155 assessed as growth inhibition after 24 hr by agar streak dilution method; type: functional; details: ATCC 155, 24 h
Rattus norvegicus [19] = test: Anti-inflammatory activity in Rattus norvegicus Wistar (rat) assessed as protection against carrageenan-induced paw edema at 20 mg/kg, po measured at 3 hr by plethysmographic analysis (reference value: 4 +/- 0.75%); type: functional
Rattus norvegicus [20] = test: Ulcerogenecity in Rattus norvegicus Wistar albino (rat) stomach assessed as ulcer index administered 20 mg/kg, ip qd for 3 days measured on day 4 relative to diclofenac; type: ADME, organism-based; design: dose 20 mg/kg, route intraperitoneal; details: in vivo, 72 h
Aspergillus fumigatus = test: Antifungal activity against Aspergillus fumigatus ATCC 46645 assessed as growth inhibition after 48 hr by agar streak dilution method; type: functional; details: ATCC 46645, 48 h

SMILES | Activity (Rattus norvegicus [1]) [%] | Activity (Mus musculus [2]) [%] | Activity (Mus musculus [3]) [%] | Activity (Rattus norvegicus [4]) [%] | MIC (Escherichia coli) [µg/mL] | Activity (Rattus norvegicus [5]) [%] | MIC (Klebsiella pneumoniae) [µg/mL] | Activity (Rattus norvegicus [6]) [%] | MIC (Staphylococcus aureus) [µg/mL] | Activity (Mus musculus [7]) [%] | Activity (Rattus norvegicus [8]) [%] | MIC (Micrococcus luteus) [µg/mL] | Activity (Mus musculus [9]) [%] | Activity (Mus musculus [10]) [%] | MIC (Aspergillus niger) [µg/mL] | Activity (Rattus norvegicus [11]) [%] | MIC (Pseudomonas aeruginosa) [µg/mL] | Activity (Rattus norvegicus [12]) [%] | Activity (Mus musculus [15]) [%] | MIC (Bacillus cereus) [µg/mL] | also measured
Cc1nc2ccccc2c(=O)n1-c1ccc(NC(=O)CN/N=C/c2ccc(C(F)(F)F)cc2)cc1 | 46 | 63 | 45 | 35 | 31.2 (≈ 65.2 µM) | 57 | 7.81 (≈ 16.3 µM) | 39 | 15.6 (≈ 32.6 µM) | 53 | 46 | 7.81 (≈ 16.3 µM) | 53 | 40 | 7.81 (≈ 16.3 µM) | 40 | 7.81 (≈ 16.3 µM) | 65 | 70 | 3.9 (≈ 8.13 µM) | UI (Rattus norvegicus [13]): 0.55 no unit; UI (Rattus norvegicus [14]): 32%; Activity (Mus musculus [16]): 39%; Activity (Mus musculus [17]): 48%; MIC [18]: 15.6 µg/mL (≈ 32.6 µM); Activity (Rattus norvegicus [19]): 47%; UI (Rattus norvegicus [20]): 32%; MIC (Aspergillus fumigatus): 15.6 µg/mL (≈ 32.6 µM)
Cc1ccc(/C=N/NCC(=O)Nc2ccc(-n3c(C)nc4ccccc4c3=O)cc2)cc1 | 41 | 59 | 41 | 30 | 62.5 (≈ 147 µM) | 54 | 31.2 (≈ 73.4 µM) | 31 | 125 (≈ 294 µM) | 48 | 41 | 125 (≈ 294 µM) | 47 | 37 | 62.5 (≈ 147 µM) | 35 | 62.5 (≈ 147 µM) | 60 | 63 | 31.2 (≈ 73.4 µM) | UI (Rattus norvegicus [13]): 0.61 no unit; UI (Rattus norvegicus [14]): 31%; Activity (Mus musculus [16]): 37%; Activity (Mus musculus [17]): 42%; MIC [18]: 62.5 µg/mL (≈ 147 µM); Activity (Rattus norvegicus [19]): 39%; UI (Rattus norvegicus [20]): 34%; MIC (Aspergillus fumigatus): 125 µg/mL (≈ 294 µM)
Cc1nc2ccccc2c(=O)n1-c1ccc(NC(=O)CN/N=C/c2ccccc2)cc1 | 34 | 50 | 32 | 24 | 62.5 (≈ 152 µM) | 46 | 15.6 (≈ 38 µM) | 28 | 31.2 (≈ 75.9 µM) | 42 | 35 | 62.5 (≈ 152 µM) | 41 | 30 | 31.2 (≈ 75.9 µM) | 29 | 31.2 (≈ 75.9 µM) | 51 | 57 | 31.2 (≈ 75.9 µM) | UI (Rattus norvegicus [13]): 0.7 no unit; UI (Rattus norvegicus [14]): 31%; Activity (Mus musculus [16]): 29%; Activity (Mus musculus [17]): 35%; MIC [18]: 31.2 µg/mL (≈ 75.9 µM); Activity (Rattus norvegicus [19]): 32%; UI (Rattus norvegicus [20]): 34%; MIC (Aspergillus fumigatus): 31.2 µg/mL (≈ 75.9 µM)
Cc1nc2ccccc2c(=O)n1-c1ccc(NC(=O)CN/N=C/c2ccc([N+](=O)[O-])cc2)cc1 | 31 | 42 | 27 | 20 | 31.2 (≈ 68.5 µM) | 36 | 7.81 (≈ 17.1 µM) | 20 | 31.2 (≈ 68.5 µM) | 38 | 29 | 15.6 (≈ 34.2 µM) | 36 | 26 | 15.6 (≈ 34.2 µM) | 26 | 15.6 (≈ 34.2 µM) | 40 | 49 | 7.81 (≈ 17.1 µM) | UI (Rattus norvegicus [13]): 0.8 no unit; UI (Rattus norvegicus [14]): 31%; Activity (Mus musculus [16]): 25%; Activity (Mus musculus [17]): 31%; MIC [18]: 7.81 µg/mL (≈ 17.1 µM); Activity (Rattus norvegicus [19]): 31%; UI (Rattus norvegicus [20]): 34%; MIC (Aspergillus fumigatus): 15.6 µg/mL (≈ 34.2 µM)
Cc1nc2ccccc2c(=O)n1-c1ccc(NC(=O)CN/N=C/c2ccc(O)cc2)cc1 | 28 | 43 | 26 | 21 | 125 (≈ 292 µM) | 39 | 125 (≈ 292 µM) | 22 | 125 (≈ 292 µM) | 36 | 30 | 62.5 (≈ 146 µM) | 34 | 23 | 125 (≈ 292 µM) | 25 | 125 (≈ 292 µM) | 43 | 47 | 125 (≈ 292 µM) | UI (Rattus norvegicus [13]): 0.82 no unit; UI (Rattus norvegicus [14]): 31%; Activity (Mus musculus [16]): 20%; Activity (Mus musculus [17]): 30%; MIC [18]: 125 µg/mL (≈ 292 µM); Activity (Rattus norvegicus [19]): 29%; UI (Rattus norvegicus [20]): 34%; MIC (Aspergillus fumigatus): 62.5 µg/mL (≈ 146 µM)
Cc1ccc(/C=N\NCC(=O)Nc2ccc(-n3c(C)nc4ccccc4c3=O)cc2)o1 | 30 | 33 | 21 | 19 | 62.5 (≈ 150 µM) | 35 | 62.5 (≈ 150 µM) | 23 | 62.5 (≈ 150 µM) | 29 | 31 | 125 (≈ 301 µM) | 27 | 17 | 125 (≈ 301 µM) | 25 | 31.2 (≈ 75.2 µM) | 39 | 38 | 62.5 (≈ 150 µM) | UI (Rattus norvegicus [13]): 0.77 no unit; UI (Rattus norvegicus [14]): 31%; Activity (Mus musculus [16]): 19%; Activity (Mus musculus [17]): 24%; MIC [18]: 62.5 µg/mL (≈ 150 µM); Activity (Rattus norvegicus [19]): 30%; UI (Rattus norvegicus [20]): 34%; MIC (Aspergillus fumigatus): 62.5 µg/mL (≈ 150 µM)
O=C([O-])Cc1ccccc1Nc1c(Cl)cccc1Cl.[Na+] [DICLOFENAC SODIUM] | 42 | 55 | 41 | 31 |  | 51 |  | 29 |  | 47 | 40 |  | 49 | 34 |  | 36 |  | 60 | 64 |  | Activity (Mus musculus [16]): 32%; Activity (Mus musculus [17]): 44%; Activity (Rattus norvegicus [19]): 43%
O=C(O)c1cn(C2CC2)c2cc(N3CCNCC3)c(F)cc2c1=O [CIPROFLOXACIN] |  |  |  |  | 15.6 (≈ 47.1 µM) |  | 3.9 (≈ 11.8 µM) |  | 15.6 (≈ 47.1 µM) |  |  | 7.81 (≈ 23.6 µM) |  |  |  |  | 7.81 (≈ 23.6 µM) |  |  | 7.81 (≈ 23.6 µM) | MIC [18]: 7.81 µg/mL (≈ 23.6 µM)
CC(=O)N1CCN(c2ccc(OCC3COC(Cn4ccnc4)(c4ccc(Cl)cc4Cl)O3)cc2)CC1 (stereo not drawn) [KETOCONAZOLE] |  |  |  |  |  |  |  |  |  |  |  |  |  |  | 15.6 (≈ 29.4 µM) |  |  |  |  |  | MIC (Aspergillus fumigatus): 7.81 µg/mL (≈ 14.7 µM)
